Take `Cc1cccc(-c2nc(NC(=O)Nc3ccccc3)sc2-c2ccnc(NC3CCCCC3)c2)c1` [H 53-2, N-[5 (2 cyclohexylamino-4-pyridyl)-4 (3 methylphenyl)-1,3 thiazol-2 yl]-N′-phenylurea]: the melting point (commonly the temperature, or range, at which the solid turns liquid) was 198 to 199 °C.
`Cc1cccc(-c2nc(NC(=O)Nc3ccccc3)sc2-c2ccnc(NC3CCCC3)c2)c1` [H 53-3, N-[5 (2 cyclopentylamino-4 pyridyl)-4 (3 methylphenyl)-1,3 thiazol-2 yl]-N′-phenylurea] came in with a melting point of 188 to 190 °C.
`Cc1cccc(-c2nc(NC(=O)Nc3ccccc3)sc2-c2ccnc(C)c2)c1` [H 53-4, N-[4 (3 methylphenyl)-5-(2 methyl-4 pyridyl)-1,3 thiazol-2 yl]-N′-phenylurea] showed a melting point of 168 to 169 °C.
The same measure for `Cc1cccc(-c2nc(-c3ccc([S+](C)[O-])cc3)sc2-c2ccnc(C)c2)c1` (stereo not drawn) [H 54, 4-(3-methylphenyl)-5-(2-methyl-4-pyridyl)-2-(4-methylsulfinylphenyl)-1,3-thiazole]: 128 to 130 °C; for `Cc1cccc(-c2nc(-c3ccc([S+](C)[O-])cc3)sc2-c2cc(C)nc(C)c2)c1` (stereo not drawn) [H 55, 5 (2,6 dimethyl-4 pyridyl)-4 (3 methylphenyl)-2 (4-methylsulfinylphenyl)-1,3 thiazole]: 133 to 134 °C; for `Cc1cc(C)cc(-c2nc(-c3ccc([S+](C)[O-])cc3)sc2-c2ccnc(C)c2)c1` (stereo not drawn) [H 56-1, 4 (3,5 dimethylphenyl)-5-(2 methyl-4 pyridyl)-2 (4 methylsulfinylphenyl)-1,3 thiazole]: 151 to 153 °C.
`Cc1cc(C)cc(-c2nc(-c3ccc([S+](C)[O-])cc3)sc2-c2cc(C)nc(C)c2)c1` (stereo not drawn) [H 56-2, 4 (3,5 dimethylphenyl)-5-(2,6 dimethyl-4 pyridyl)-2 (4 methylsulfinylphenyl)-1,3-thiazole] gave a melting point of 151 to 154 °C.
With `Cc1cc(C)cc(-c2nc(-c3ccc(S(C)(=O)=O)cc3)sc2-c2ccnc(C)c2)c1` [H 58-1, 4 (3,5 dimethylphenyl)-5-(2 methyl-4 pyridyl)-2 (4 methylsulfonylphenyl)-1,3 thiazole], the melting point lay in the range of 196 to 197 °C.
For `Cc1cccc(-c2nc(-c3ccc(S(C)(=O)=O)cc3)sc2-c2cc(C)nc(C)c2)c1` [H 58-2, 5 (2,6 dimethyl-4-pyridyl)-4 (3 methylphenyl)-2 (4 methylsulfonylphenyl)-1,3-thiazole] the value was 182 to 184 °C; for `Cc1cc(C)cc(-c2nc(-c3ccc(S(C)(=O)=O)cc3)sc2-c2cc(C)nc(C)c2)c1` [H 58-3, 4 (3,5 dimethylphenyl)-5-(2,6 dimethyl-4 pyridyl)-2 (4 methylsulfonylphenyl)-1,3-thiazole], 217 to 220 °C; for `Cc1cccc(-c2nc(-c3ccc(S(C)(=O)=O)cc3)sc2-c2ccnc(F)c2)c1` [H 58-4, 5-(2-fluoro-4-pyridyl)-4-(3-methylphenyl)-2-(4-methylsulfonylphenyl)-1,3-thiazole], 195 to 199 °C.
With `Cc1cc(-c2sc(-c3ccc(S(C)(=O)=O)cc3)nc2-c2ccc(F)cc2)ccn1` [H 58-5, 4 (4 fluorophenyl)-5 (2-methyl-4 pyridyl)-2 (4 methylsulfonylphenyl)-1,3 thiazole], the melting point was 190 to 192 °C.
In the case of `CC(=O)Nc1cc(-c2sc(-c3ccc(S(C)(=O)=O)cc3)nc2-c2cccc(Cl)c2)ccn1` [H 58-6, N-[4-[4-(3-chlorophenyl)-2-(4-methylsulfonylphenyl)-1,3-thiazol-5-yl]-2-pyridyl]acetamide], the melting point was in the range of 216 to 217 °C.
The same measure for `CC(C)(C)C(=O)Nc1cc(-c2sc(-c3ccc(S(C)(=O)=O)cc3)nc2-c2cccc(Cl)c2)ccn1` [H 58-8, N-[4-[4-(3-chlorophenyl)-2-(4-methylsulfonylphenyl)-1,3-thiazol-5-yl]-2-pyridyl]pivalamide]: 122 to 123 °C; for `Cc1cc(C)cc(-c2nc(-c3ccc(S(C)(=O)=O)cc3)sc2-c2cc[n+]([O-])c(C)c2)c1` [H 59, 4 [4 (3,5 dimethylphenyl)-2 (4 methylsulfonylphenyl)-1,3-thiazol-5 yl]-2 methylpyridine N-oxide]: 255 to 256 °C.
In turn, `Cc1cccc(-c2nc(NC(=O)OCCCl)sc2-c2ccnc(C)c2)c1` [H 62, 2 chloroethyl [4 (3-methylphenyl)-5 (2 methyl-4 pyridyl)-1,3 thiazol-2-yl]carbamate] registered a melting point of 156 to 158 °C.
For `CONC(=O)Nc1nc(-c2cccc(C)c2)c(-c2ccnc(C)c2)s1` [H 63, N-methoxy-N′-[4 (3 methylphenyl)-5 (2 methyl-4 pyridyl)-1,3-thiazol-2 yl]urea] the value was 194 to 195 °C; for `Cc1cccc(-c2nc(NC(=O)NOc3ccccc3)sc2-c2ccnc(C)c2)c1` [H 64, N-[4 (3 methylphenyl)-5 (2-methyl-4 pyridyl)-1,3 thiazol-2 yl]-N′-phenyloxyurea], 154 to 155 °C; for `Cc1cccc(C2=NCSC2(c2ccnc(C)c2)N2CCOC2=O)c1` (stereo not drawn) [H 65, 3 [4 (3 methylphenyl)-5 (2 methyl-4 pyridyl)-1,3 thiazol-5-yl]-oxazolidin-2 one], 80 to 82 °C.
For `Cc1cccc(-c2nc(N3CCNC3=O)sc2-c2ccnc(C)c2)c1` [H 66, 1 [4 (3 methylphenyl)-5 (2-methyl-4 pyridyl)-1,3 thiazol-2 yl]imidazolidin-2 one] the value was 200 to 201 °C; for `Cc1cccc(-c2nc(N3CCN(c4ccccc4)C3=O)sc2-c2ccnc(C)c2)c1` [H 67, 1 [4 (3 methylphenyl)-5 (2 methyl-4 pyridyl)-1,3 thiazol-2-yl]-3 phenylimidazolidin-2 one], 180 to 182 °C.
For `Cc1cccc(-c2nc(-c3ccc(S(C)(=O)=O)cc3)sc2-c2cc[n+]([O-])c(C)c2)c1` [H 68-1, 4 [4 (3 methylphenyl)-2-(4 methylsulfonylphenyl)-1,3 thiazol-5 yl]-2 methylpyridine N-oxide], the melting point is 197 to 198 °C.
For `CCc1nc(-c2cccc(C)c2)c(-c2ccnc(CC#N)c2)s1` [H 71, 5 (2 cyanomethyl-4 pyridyl)-2 ethyl-4 (3 methylphenyl)-1,3-thiazole], the melting point lay in the range of 68 to 69 °C.
Regarding `Cc1cccc(-c2nc(-c3ccc(S(C)(=O)=O)cc3)sc2-c2ccnc(CO)c2)c1` [H 72, 4 [4 (3 methylphenyl)-2 (4 methylsulfonylphenyl)-1,3 thiazol-5 yl]-2 pyridylmethanol], the melting point fell in the range of 172 to 173 °C.
Turning to `CCc1nc(-c2cccc(Br)c2)c(-c2ccnc(NC(=O)OC(C)(C)C)c2)s1` [H 75-1, 4 (3 bromophenyl)-5 [2-(tert-butoxycarbonylamino)-4 pyridyl]-2 ethyl-1,3 thiazole], the melting point lay in the range of 172 to 174 °C.
For the compound `CCc1nc(-c2cccc(Br)c2)c(-c2ccnc(N)c2)s1` [H 75-2, 4 [4 (3 bromophenyl)-2-ethyl-1,3 thiazol-5 yl]-2 pyridylamine], the melting point was 132 to 134 °C.
`CCc1nc(-c2cccc(C#N)c2)c(-c2ccnc(N)c2)s1` [H 76, 4 [4 (3 cyanophenyl)-2 ethyl-1,3 thiazol-5 yl]-2 pyridylamine] registered a melting point of 178 to 179 °C.

(Values after patent US20050080113A1, “Medicinal compositions” (priority 2001, published 2005).)
